This assay has as its target Der p 1 (Dermatophagoides pteronyssinus (European house dust mite), UniProt P08176). Briefly: Der p 1 enzyme activity assay (FRET fluorogenic substrate). In kind it is biochemical.
Setting [1] is: threshold stated in text, read-out: Der p 1 IC50.

These results are taken from US8541363B2, “Pyruvamide compounds as inhibitors of dust mite group 1 peptidase allergen and their use” (St George's Hosptial Medical School, priority 2010, dated 2013).

Like-named read-outs stand apart in the source and are kept apart here.

Sequence of Der p 1 (P08176 99-320): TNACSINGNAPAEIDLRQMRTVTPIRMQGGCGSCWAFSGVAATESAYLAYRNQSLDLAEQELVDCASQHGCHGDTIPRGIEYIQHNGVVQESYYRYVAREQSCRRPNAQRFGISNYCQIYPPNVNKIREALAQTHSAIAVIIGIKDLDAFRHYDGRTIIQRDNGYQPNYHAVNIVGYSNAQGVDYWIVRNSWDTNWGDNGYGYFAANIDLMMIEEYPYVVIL

By IC50 is commonly meant the concentration needed to halve the response being measured. In the case of `CC(C)[C@H](NC(=O)[C@H](C)NC(=O)[C@@H](NC(=O)c1ccccc1C(F)(F)F)C(C)(C)C)C(=O)C(=O)NCc1ccccc1` [PVA-182], the half-inhibitory concentration (IC50) under setting [1] was under 20 nM.
As to `CC(C)[C@H](NC(=O)[C@H](C)NC(=O)[C@@H](NC(=O)c1ccccc1)C(C)(C)C)C(=O)C(=O)NCc1ccc(N2CCN(C)CC2)cc1` [PVA-162], under setting [1], the half-inhibitory concentration (IC50) is under 20 nM.
Consider `CC(C)[C@H](NC(=O)[C@H](C)NC(=O)[C@@H](NC(=O)c1cccc2nc[nH]c12)C(C)(C)C)C(=O)C(=O)NCc1ccccc1` [PVA-157], for which, under setting [1], the IC50 is under 20 nM.
`CC(C)[C@H](NC(=O)[C@H](C)NC(=O)[C@@H](NC(=O)c1ccccc1)C(C)(C)C)C(=O)C(=O)NCc1ccc(N2CCN(C)CC2)nc1` [PVA-195]: the concentration for half-maximal inhibition (IC50) under setting [1] is under 20 nM.
Consider `CC(C)[C@H](NC(=O)[C@H](C)NC(=O)[C@@H](Cc1ccc2ccccc2c1)NC(=O)c1ccccc1)C(=O)C(=O)NCc1ccccc1` [PVA-032], for which the IC50 under setting [1] is under 200 nM.
Regarding `Cc1ccccc1C[C@H](NC(=O)c1ccncc1)C(=O)N[C@@H](C)C(=O)N[C@H](C(=O)C(=O)NCc1ccccc1)C(C)C` [PVA-151], the half-inhibitory concentration (IC50) under setting [1] was under 20 nM.
Regarding `CC(C)[C@H](NC(=O)[C@H](C)NC(=O)[C@@H](NC(=O)c1ccccc1)C(C)(C)C)C(=O)C(=O)NCc1nccn1C` [PVA-166], the half-maximal inhibitory concentration (IC50) under setting [1] was under 200 nM.
For `CC(C)[C@H](NC(=O)[C@H](C)NC(=O)[C@@H](NC(=O)c1ccccc1)C(C)(C)C)C(=O)C(=O)NCc1cn[nH]c1` [PVA-158], the IC50 under setting [1] was under 20 nM.
Still for that read-out and setting: next, `CC(C)[C@H](NC(=O)[C@H](C)NC(=O)[C@@H](Cc1ccc(F)cc1)NC(=O)c1ccccc1)C(=O)C(=O)NC1CCCCC1` [PVA-027]: under 200 nM; `COC(=O)c1cccc(CNC(=O)C(=O)[C@@H](NC(=O)[C@H](C)NC(=O)[C@@H](NC(=O)c2ccccc2)C(C)(C)C)C(C)C)c1` [PVA-199]: under 20 nM; `CC(C)[C@H](NC(=O)[C@H](C)NC(=O)[C@@H](NC(=O)c1ccccc1)C(C)(C)C)C(=O)C(=O)NCc1cncn1C` [PVA-124]: under 200 nM.
Regarding `CC(C)[C@H](NC(=O)[C@H](C)NC(=O)[C@@H](Cc1cccc2ccccc12)NC(=O)c1ccccc1)C(=O)C(=O)NCc1ccccc1` [PVA-034], the concentration for half-maximal inhibition (IC50) under setting [1] is under 2000 nM.
In turn, `CC(C)[C@H](NC(=O)[C@H](C)NC(=O)[C@H](Cc1ccccc1)NC(=O)c1ccccc1)C(=O)C(=O)NCC(=O)N1CCN(C)CC1` [PVA-047] displayed a half-maximal inhibitory concentration (IC50) (Der p 1 IC50) of under 20 nM.
Regarding `CC(C)[C@H](NC(=O)[C@H](C)NC(=O)[C@@H](Cc1ccc(F)cc1)NC(=O)c1ccccc1)C(=O)C(=O)NCc1ccccc1` [PVA-045], the IC50 under setting [1] was under 200 nM.
The same measure, in the same setting: next, `COc1ccc(CNC(=O)C(=O)[C@@H](NC(=O)[C@H](C)NC(=O)[C@H](Cc2ccccc2)NC(=O)c2ccncc2)C(C)C)cc1` [PVA-159]: under 200 nM; `CC(C)C[C@H](NC(=O)[C@H](C)NC(=O)[C@H](Cc1ccccc1)NC(=O)c1ccccc1)C(=O)C(=O)N[C@@H](C)c1ccccc1` [PVA-002]: under 200 nM; `CC(C)[C@H](NC(=O)[C@H](C)NC(=O)[C@H](Cc1ccccc1)NC(=O)c1ccccc1)C(=O)C(=O)NCc1ccc2c(c1)OCO2` [PVA-041]: under 200 nM.
Turning to `CC(C)[C@H](NC(=O)[C@H](C)NC(=O)[C@@H](NC(=O)C1CC[N+](C)(C)CC1)C(C)(C)C)C(=O)C(=O)NC1CCCCC1` [PVA-153], the half-maximal inhibitory concentration (IC50) under setting [1] is under 20 nM.
Same read-out and setting: next, `CC(C)[C@H](NC(=O)[C@H](C)NC(=O)[C@@H](NC(=O)C1CCN(C)CC1)C(C)(C)C)C(=O)C(=O)NCc1ccccc1` [PVA-216]: under 20 nM.
With `CC(C)[C@H](NC(=O)[C@H](C)NC(=O)[C@@H](NC(=O)c1ccccc1)C(C)(C)C)C(=O)C(=O)N[C@@H]1CCc2ccccc21` [PVA-109], under setting [1], the IC50 was under 200 nM.
As for `CC(C)[C@H](NC(=O)[C@H](C)NC(=O)[C@@H](NC(=O)c1cc[nH]c(=O)c1)C(C)(C)C)C(=O)C(=O)NCc1ccccc1` [PVA-114], the concentration for half-maximal inhibition (IC50) under setting [1] is under 200 nM.
`CC(C)[C@H](NC(=O)[C@H](C)NC(=O)[C@H](Cc1ccccc1)NC(=O)c1ccccc1)C(=O)C(=O)NCC(=O)N1CCN(C(C)C)CC1` [PVA-092] displayed a 50% inhibitory concentration (IC50) (Der p 1 IC50) of under 20 nM.
Take `CC(=O)Nc1ccc(C(=O)N[C@@H](Cc2ccccc2)C(=O)N[C@@H](C)C(=O)N[C@H](C(=O)C(=O)NCc2ccccc2)C(C)C)cn1` [PVA-059]: the IC50 under setting [1] is under 200 nM.
Turning to `CC(C)[C@H](NC(=O)[C@H](C)NC(=O)[C@@H](Cc1cccc(F)c1)NC(=O)c1ccccc1)C(=O)C(=O)NC1CCCCC1` [PVA-031], the IC50 under setting [1] is under 200 nM.
As to `CC(C)[C@H](NC(=O)[C@H](C)NC(=O)[C@@H](NC(=O)c1ccccc1)C(C)(C)C)C(=O)C(=O)NCc1ccc(S(N)(=O)=O)cc1` [PVA-135], under setting [1], the IC50 is under 20 nM.
The same measure, in the same setting: next, `CC(C)[C@H](NC(=O)[C@H](C)NC(=O)[C@@H](NC(=O)c1ccccc1)C(C)(C)C)C(=O)C(=O)NCc1ccc(NC(N)=O)cc1` [PVA-194]: under 20 nM.
For `CC(C)[C@H](NC(=O)[C@H](C)NC(=O)[C@H](Cc1ccccc1)NC(=O)c1ccccc1)C(=O)C(=O)NCc1cccc(C(=O)O)c1` [PVA-081], the IC50 under setting [1] is under 200 nM.
In the case of `CC(C)[C@H](NC(=O)[C@H](C)NC(=O)[C@@H](NC(=O)N1CCN(C)CC1)C(C)(C)C)C(=O)C(=O)NCc1ccccc1` [PVA-122], under setting [1], the IC50 is under 200 nM.
Consider `CC(C)[C@H](NC(=O)[C@H](C)NC(=O)C1(NC(=O)c2ccccc2)CCCCC1)C(=O)C(=O)NC1CCCCC1` [PVA-091], for which the half-maximal inhibitory concentration (IC50) under setting [1] is under 200 nM.
As for `CC(C)[C@H](NC(=O)[C@H](C)NC(=O)[C@@H](NC(=O)c1cccc(OCc2nccn2C)c1)C(C)(C)C)C(=O)C(=O)NC1CCCCC1` [PVA-075], the half-maximal inhibitory concentration (IC50) under setting [1] is under 200 nM.
With `CC(C)[C@H](NC(=O)[C@H](C)NC(=O)[C@H](Cc1ccccc1)NC(=O)c1n[nH]c2ccccc12)C(=O)C(=O)NCc1ccccc1` [PVA-113], the IC50 under setting [1] was under 200 nM.
Same read-out and setting: next, `CC(C)[C@H](NC(=O)[C@H](C)NC(=O)[C@@H](N1Cc2ccccc2C1=O)C(C)(C)C)C(=O)C(=O)NCc1ccc(CN(C)C)cc1` [PVA-210]: under 20 nM; `CC(C)[C@H](NC(=O)[C@H](C)NC(=O)[C@H](Cc1ccccc1)NC(=O)c1ccccc1)C(=O)C(=O)NCCN1CCN(C)CC1` [PVA-098]: under 200 nM.
Regarding `CC(C)[C@H](NC(=O)[C@H](C)NC(=O)[C@@H](NC(=O)c1ccc2ncsc2c1)C(C)(C)C)C(=O)C(=O)NCc1ccccc1` [PVA-057], the IC50 under setting [1] was under 200 nM.
Still for that read-out and setting: the figure for `COc1ccc(CNC(=O)C(=O)[C@@H](NC(=O)[C@H](C)NC(=O)[C@H](Cc2ccccc2)NC(=O)c2ccccc2)C(C)C)cc1` [PVA-042] is under 20 nM; for `CC(C)[C@H](NC(=O)[C@H](C)NC(=O)[C@@H](Cc1ccccc1F)NC(=O)c1ccccc1)C(=O)C(=O)NC1CCCCC1` [PVA-030] it is under 200 nM.
Regarding `CC(C)[C@H](NC(=O)[C@H](C)NC(=O)[C@@H](NC(=O)c1cnccn1)C(C)(C)C)C(=O)C(=O)NC1CCCCC1` [PVA-054], under setting [1], the IC50 is under 200 nM.
In the case of `CCCCC(NC(=O)[C@H](C)NC(=O)[C@H](Cc1ccccc1)NC(=O)c1ccccc1)C(=O)C(=O)N1CCCC1` (stereo partly shown) [PVA-006], the IC50 under setting [1] was under 2000 nM.
The same measure, in the same setting: next, `COCCNC(=O)C(=O)[C@@H](NC(=O)[C@H](C)NC(=O)[C@H](Cc1ccccc1)NC(=O)c1ccccc1)C(C)C` [PVA-046]: under 200 nM; `CC(C)[C@H](NC(=O)[C@H](C)NC(=O)[C@@H](NC(=O)c1ccccc1S(C)(=O)=O)C(C)(C)C)C(=O)C(=O)NCc1ccccc1` [PVA-108]: under 20 nM; `CC(C)[C@H](NC(=O)[C@H](C)NC(=O)[C@@H](NC(=O)c1ccccc1)C(C)(C)C)C(=O)C(=O)NCc1ccc(OC(F)(F)F)cc1` [PVA-189]: under 200 nM.
Regarding `CC(C)[C@H](NC(=O)[C@H](C)NC(=O)[C@@H](N1Cc2ccccc2C1=O)C(C)(C)C)C(=O)C(=O)NCc1ccc(S(N)(=O)=O)cc1` [PVA-206], the 50% inhibitory concentration (IC50) under setting [1] was under 20 nM.
With `CC(C)[C@H](NC(=O)[C@H](C)NC(=O)[C@@H](NC(=O)c1ccnc2ccccc12)C(C)(C)C)C(=O)C(=O)NCC(=O)N1CCN(C(C)C)CC1` [PVA-187], the IC50 under setting [1] is under 20 nM.
Regarding `CC(C)[C@H](NC(=O)[C@H](C)NC(=O)[C@@H](NC(=O)c1ccccc1)C(C)(C)C)C(=O)C(=O)NCc1ccc(C(C)(C)C)cc1` [PVA-180], the IC50 under setting [1] was under 200 nM.
As to `Cc1cc(C(=O)N[C@H](C(=O)N[C@@H](C)C(=O)N[C@H](C(=O)C(=O)NC2CC2)C(C)C)C(C)(C)C)[nH]n1` [PVA-141], under setting [1], the IC50 was under 200 nM.
Take `CC(C)[C@H](NC(=O)[C@H](C)NC(=O)C1CCCN1C(=O)c1ccccc1)C(=O)C(=O)NC1CCCCC1` (stereo partly shown) [PVA-101]: under setting [1], the 50% inhibitory concentration (IC50) is under 200 nM.
In the case of `CC(C)[C@H](NC(=O)[C@H](C)NC(=O)[C@@H](NC(=O)c1ccc(N2CCN(C)CC2)cc1)C(C)(C)C)C(=O)C(=O)NCc1ccccc1` [PVA-176], the concentration for half-maximal inhibition (IC50) under setting [1] was under 200 nM.
On the same count and under the same terms, the figure for `Cc1n[nH]c(C)c1C(=O)N[C@H](C(=O)N[C@@H](C)C(=O)N[C@H](C(=O)C(=O)NCc1ccccc1)C(C)C)C(C)(C)C` [PVA-115] is under 200 nM; for `CC(C)[C@H](NC(=O)[C@H](C)NC(=O)[C@@H]1Cc2ccccc2CN1C(=O)c1ccccc1)C(=O)C(=O)NC1CCCCC1` [PVA-100] it is under 200 nM.
Regarding `CC(C)[C@H](NC(=O)[C@H](C)NC(=O)[C@H](Cc1ccccc1)NC(=O)c1ccccc1)C(=O)C(=O)NC1CCOCC1` [PVA-044], under setting [1], the IC50 is under 200 nM.
Regarding `CC(C)[C@H](NC(=O)[C@H](C)NC(=O)[C@@H](NC(=O)c1ccccc1C(=O)O)C(C)(C)C)C(=O)C(=O)NCC(=O)N1CCN(C)CC1` [PVA-136], under setting [1], the half-inhibitory concentration (IC50) was under 20 nM.
Compound `CC(C)[C@H](NC(=O)[C@H](C)NC(=O)[C@H](Cc1ccccc1)NC(=O)c1ccccc1)C(=O)C(=O)NCC(=O)N1CCOCC1` [PVA-068] returned an IC50 (Der p 1 IC50) of under 20 nM.
On to `CC(=O)Nc1cc(C(=O)N[C@@H](Cc2ccccc2)C(=O)N[C@@H](C)C(=O)N[C@H](C(=O)C(=O)NCc2ccccc2)C(C)C)ccn1` [PVA-060], for which the half-inhibitory concentration (IC50) under setting [1] was under 200 nM.
With `CC(C)[C@H](NC(=O)[C@H](C)NC(=O)[C@@H](Cc1ccc(-c2ccccc2)cc1)NC(=O)c1ccccc1)C(=O)C(=O)NCc1ccccc1` [PVA-033], the half-maximal inhibitory concentration (IC50) under setting [1] was under 200 nM.
On to `CC(C)[C@H](NC(=O)[C@H](C)NC(=O)[C@H](Cc1ccccc1)NC(=O)c1ccncc1)C(=O)C(=O)NC1CCC1` [PVA-174], for which the concentration for half-maximal inhibition (IC50) under setting [1] was under 200 nM.
